Source: PubChem BioAssay (NCI)
“And” between values parts separate entries of the source, which are not always exact repeats. Equal values may be shown once.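 These data come from cells grown in 96-well plates and exposed to compound for 48 hours at five concentrations. The concentration for 50% growth inhibition is given as GI50. TGI: concentration producing complete growth inhibition.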

Legend:
Assay in all cases: growth of human tumour cells (NCI), 48 h
[1] = tested on: MDA-MB-435
[2] = tested on: T-47D breast
[3] = tested on: TK-10 renal
[4] = tested on: ACHN renal
[5] = tested on: SNB-78 CNS
[6] = tested on: XF 498 CNS
[7] = tested on: DMS 273 small cell lung
[8] = tested on: SF-539 CNS
[9] = tested on: LXFL 529 NSCLC
[10] = tested on: DMS 114 small cell lung
[11] = tested on: M19-MEL melanoma

Compound | TGI [1] | TGI [2] | TGI [3] | TGI [4] | TGI [5] | TGI [6] | TGI [7] | TGI [8] | GI50 [9] | TGI [9] | GI50 [10] | TGI [10] | GI50 [11] | TGI [11] | other results
CCn1c2ccccc2c2cc(NC(=O)c3c(C)[nH]c(=O)[nH]c3=S)ccc21 | 84 µM | > 100 µM | > 100 µM | – | – | – | – | – | – | – | – | – | – | – | –
COc1cccc(C2c3cc4c(cc3OC(N3CCOCC3)C2C)OCO4)c1 (centres undefined) | – | > 100 µM | – | > 100 µM | – | – | – | – | – | – | – | – | – | – | –
COc1cccc2c1C(=O)c1c(O)c3c(c(O)c1C2=O)C[C@](O)(C(=O)CO)CC3OC1CC(N)C(OC2CCCCO2)C(C)O1 (some centres undefined) | – | – | – | – | 6.02 µM | 0.684 µM | 1220 nM | 1.41 µM | – | – | – | – | – | – | –
CCC[CH2][Ge]([CH2]CCC)([CH2]CCC)[O]C(=O)CCl | – | – | 17.7 µM | 18.4 µM | – | 21.1 µM | – | 6.85 µM | 1980 nM | 17100 nM | 316 nM | 10200 nM | 11.1 µM | 23200 nM | GI50 [6]: 8.63 µM; GI50 [8]: 1650 nM; GI50 [4]: 2710 nM; GI50 [3]: 3.4 µM
O=C1/C(=C/c2ccc(Cl)c(Cl)c2)CN(C(=O)CCN2CCOCC2)C/C1=C\c1ccc(Cl)c(Cl)c1 | 0.0309 µM | – | – | – | 9.93 µM and 6.3 µM | – | 2370 nM and 608 nM | – | 499 nM | 2990 nM and 1630 nM | 346 nM | 2340 nM and 1330 nM | 1.09 µM | 3000 nM and 2400 nM | GI50 [5]: 2220 nM; GI50 [7]: 230 nM
